In BindingDB's records for doi:10.1016/j.ejmech.2016.05.062 (University of Siena, 2016):

Experiment: Agonist activity at Smo in mouse C3H10T1/2 cells assessed as induction of cell differentiation into osteoblast incubated for 6 days by alkaline phosphatase assay

Row | EC50 [µM] | Compound
1 | 0.13 | CNC1CCC(N(Cc2cccc(-c3ccncc3)c2)C(=O)c2sc3ccccc3c2Cl)CC1 (stereo unspecified)

Experiment: Activity at Smo in mouse C3H10T1/2 cells assessed as induction of cell differentiation into osteoblast incubated for 6 days by alkaline phosphatase assay

Row | Compound | EC50 [µM]
2 | CCCCCCn1c(=O)c(C(=O)Nc2ccc(C(=O)OCCCC)cc2)c(O)c2ccccc21 | 1.5
3 | CCCCCn1c(=O)c(C(=O)Nc2ccc(C(=O)OCCCC)cc2)c(O)c2ccccc21 | 0.6
4 | CCCCCn1c(=O)c(C(=O)Nc2ccc(C(=O)OCC)cc2)c(O)c2ccccc21 | 0.9
5 | CCCCCCn1c(=O)c(C(=O)Nc2ccc(C(=O)OCCC)cc2)c(O)c2ccccc21 | 1.2
6 | CCCOC(=O)c1ccc(NC(=O)c2c(O)c3cc(C)ccc3n(CCC)c2=O)cc1 | 1.2
7 | CCCCCCn1c(=O)c(C(=O)Nc2ccc(C(=O)OCC)cc2)c(O)c2ccccc21 | 3.6
8 | CCCOC(=O)c1ccc(NC(=O)c2c(O)c3cc(OC)c(OC)cc3n(CCC)c2=O)cc1 | 0.36
9 | CCCCCCn1c(=O)c(C(=O)Nc2ccc(C(=O)O)cc2)c(O)c2ccccc21 | 0.6
10 | CCCCCCn1c(=O)c(C(=O)Nc2ccc(C(=O)NCCCC)cc2)c(O)c2ccccc21 | 5.8
11 | CCCOC(=O)c1ccc(NC(=O)c2c(O)c3cccc4c3n(c2=O)CCC4)cc1 | 0.8
12 | CCCCCn1c(=O)c(C(=O)Nc2ccc(C(=O)OCCC)cc2)c(O)c2ccccc21 | 0.7
13 | CCCCn1c(=O)c(C(=O)Nc2ccc(C(=O)OCCC)cc2)c(O)c2ccccc21 | 0.8
14 | CCCCCCn1c(=O)c(C(=O)Nc2ccc(C(=O)OCc3ccccc3)cc2)c(O)c2ccccc21 | 2
15 | CCCCCCn1c(=O)c(C(=O)Nc2ccc(C(=O)OC(C)C)cc2)c(O)c2ccccc21 | 6.5
16 | C=CCn1c(=O)c(C(=O)Nc2ccc(C(=O)OCCC)cc2)c(O)c2ccccc21 | 3.4
17 | CCCOC(=O)c1ccc(NC(=O)c2c(O)c3cc(Cl)ccc3n(CCC)c2=O)cc1 | 4.9
18 | CCCCCCn1c(=O)c(C(=O)Nc2ccc(C(=O)OC(C)(C)C)cc2)c(O)c2ccccc21 | 3.1
19 | CCCOC(=O)c1ccc(NC(=O)c2c(O)c3ccccc3n(CCC)c2=O)cc1 | 2.6
20 | CCCOC(=O)c1ccc(NC(=O)c2c(O)c3cc(F)ccc3n(CCC)c2=O)cc1 | 2.4
21 | c1ccc2c(Oc3nc(Nc4ccc(N5CCOCC5)cc4)c4ncn(C5CCCCC5)c4n3)cccc2c1 [Purmorphamine] | 0.8
